# Reference: patent US12091426B2, “Bifunctional degraders of hematopoietic progenitor kinase and therapeutic uses thereof” (Nurix Therapeutics, Inc., priority 2021, dated 2024)
# Target: T1, HPK1 (Homo sapiens, UniProt Q92918)
# T1 construct: A HiBiT tag was introduced by CRISPR on the N terminus of HPK1 in Jurkat cells; host or cells: Jurkat cells (ATCC TIB-152), monoclonal line with CRISPR knock-in of HiBiT at the endogenous HPK1 locus
# Assay: HPK1 Cellular HiBit Degradation Assay
# Assay type: cell-based
# Settings: HiBiT HPK1 Jurkat cells, 24 hrs; for DC50: concentration at which 50% of HPK1 was remaining, read-out: DC50 Category; for Dmax: Jurkat, read-out: Dmax Category; for Dmax / Dmax Category: maximum degradation vs DMSO vehicle control
# Outline: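 HPK1 levels are read by HiBiT luminescence after 24 h exposure of HiBiT-knock-in Jurkat cells to compound at 10 uM–0.1 nM final (11 points). Relative to DMSO (100%), DC50 is the concentration leaving 50% HPK1 from a variable-slope fit, and Dmax is 100 minus minimum remaining. Viability checked in-plate.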
# T1 sequence (Q92918 whole entry): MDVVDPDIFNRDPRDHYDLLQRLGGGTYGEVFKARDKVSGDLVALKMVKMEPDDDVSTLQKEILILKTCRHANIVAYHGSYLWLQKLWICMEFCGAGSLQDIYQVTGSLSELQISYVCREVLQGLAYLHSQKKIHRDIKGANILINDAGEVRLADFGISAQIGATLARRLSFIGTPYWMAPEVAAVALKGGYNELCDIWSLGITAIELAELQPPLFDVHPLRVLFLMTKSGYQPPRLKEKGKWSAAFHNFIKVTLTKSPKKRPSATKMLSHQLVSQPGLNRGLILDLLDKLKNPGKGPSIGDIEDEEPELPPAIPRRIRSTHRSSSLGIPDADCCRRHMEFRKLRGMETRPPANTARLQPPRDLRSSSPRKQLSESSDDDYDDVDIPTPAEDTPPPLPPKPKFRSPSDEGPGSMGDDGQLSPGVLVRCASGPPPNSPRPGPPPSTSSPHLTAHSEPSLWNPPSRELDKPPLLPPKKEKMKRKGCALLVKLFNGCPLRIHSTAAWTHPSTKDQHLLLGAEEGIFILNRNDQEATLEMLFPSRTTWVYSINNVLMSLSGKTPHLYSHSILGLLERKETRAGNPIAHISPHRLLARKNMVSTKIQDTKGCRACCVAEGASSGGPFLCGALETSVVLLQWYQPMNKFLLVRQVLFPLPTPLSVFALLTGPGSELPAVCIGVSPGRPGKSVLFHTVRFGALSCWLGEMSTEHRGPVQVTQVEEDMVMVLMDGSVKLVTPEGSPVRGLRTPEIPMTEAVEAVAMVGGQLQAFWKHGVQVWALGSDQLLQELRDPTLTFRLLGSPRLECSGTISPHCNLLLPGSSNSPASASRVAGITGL
DC50 [nM],Dmax [%],SMILES,Dmax Category
< 100,70 to 85,"CC(C)n1cnc2cc(-c3ccc4c(c3)N([C@H]3C[C@@H](N5CCCCC5)C3)C(=O)C43CCN(C(=O)C4(C)CCN(C(=O)C5CCN(c6ncc(C7CCC(=O)NC7=O)cn6)CC5)CC4)CC3)nc(NC3CC3)c21 (mixture of isomers) [Example 220, (3RS)-3-(2-{4-[4-({6-[4-(cyclopropylamino)-3-(propan-2-yl)-3H-imidazo[4,5-c]pyridin-6-yl]-2-oxo-1-[(1S,3S)-3-(piperidin-1-yl)cyclobutyl]-1,2-dihydrospiro[indole-3,4′-piperidin]-1′-yl}carbonyl)-4-methylpiperidine-1-carbonyl]piperidin-1-yl}pyrimidin-5-yl)piperidine-2,6-dione]",
100 to 500,> 85,"CC(C)n1cnc2cc(-c3ccc4c(c3)N([C@H]3C[C@@H](N5CCCCC5)C3)C(=O)C43CCN(C(=O)c4ccc(C(=O)N5CCN(c6ccc7c(c6)C(=O)N(C6CCC(=O)NC6=O)C7=O)CC5)cc4)CC3)nc(Nc3ccccc3F)c21 (mixture of isomers) [Example 41, 2-[(3RS)-2,6-dioxopiperidin-3-yl]-5-(4-{4-[(6-{4-[(2-fluorophenyl)amino]-3-(propan-2-yl)-3H-imidazo[4,5-c]pyridin-6-yl}-2-oxo-1-[(1S,3S)-3-(piperidin-1-yl)cyclobutyl]-1,2-dihydrospiro[indole-3,4′-piperidin]-1′-yl)carbonyl]benzoyl}piperazin-1-yl)-2,3-dihydro-1H-isoindole-1,3-dione]",
< 100,70 to 85,"CC(C)n1cnc2cc(-c3ccc4c(c3)N([C@H]3C[C@@H](N5CCCCC5)C3)C(=O)C43CCN(C(=O)C4(C)CCN(C(=O)C5CCN(c6ccc(C7CCC(=O)NC7=O)c(F)c6)CC5)CC4)CC3)nc(NC3CC3)c21 (mixture of isomers) [Example 210, (3RS)-3-(4-{4-[4-({6-[4-(cyclopropylamino)-3-(propan-2-yl)-3H-imidazo[4,5-c]pyridin-6-yl]-2-oxo-1-[(1S,3S)-3-(piperidin-1-yl)cyclobutyl]-1,2-dihydrospiro[indole-3,4′-piperidin]-1′-yl}carbonyl)-4-methylpiperidine-1-carbonyl]piperidin-1-yl}-2-Fluorophenyl)piperidine-2,6-dione]",
< 100,70 to 85,"CC(C)n1cnc2cc(-c3ccc4c(c3)N([C@H]3C[C@@H](N5CCCCC5)C3)C(=O)C43CCN(C(=O)C4(C)CCN(C(=O)C5CCN(c6ccc(C7CCC(=O)NC7=O)cn6)CC5)CC4)CC3)nc(NC3CC4(COC4)C3)c21 (stereo partly drawn) [Example 177, 3-(6-{4-[4-methyl-4-({6-[4-({2-oxaspiro[3.3]heptan-6-yl}amino)-3-(propan-2-yl)-3H-imidazo[4,5-c]pyridin-6-yl]-2-oxo-1-[(1S,3S)-3-(piperidin-1-yl)cyclobutyl]-1,2-dihydrospiro[indole-3,4′-piperidin]-1′-yl}carbonyl)piperidine-1-carbonyl]piperidin-1-yl}pyridin-3-yl)piperidine-2,6-dione]",
< 100,70 to 85,"CC1CN(C(=O)C2CCN(c3ccc(C4CCC(=O)NC4=O)cn3)CC2)CCC1C(=O)N1CCC2(CC1)C(=O)N([C@H]1C[C@@H](N3CCCCC3)C1)c1cc(-c3cc4ncn(C(C)C)c4c(NC4CC4)n3)ccc12 (mixture of isomers) [Example 253, (3RS)-3-(6-{4-[4-({6-[4-(cyclopropylamino)-3-(propan-2-yl)-3H-imidazo[4,5-c]pyridin-6-yl]-2-oxo-1-[(1S,3S)-3-(piperidin-1-yl)cyclobutyl]-1,2-dihydrospiro[indole-3,4′-piperidin]-1′-yl}carbonyl)-3-methylpiperidine-1-carbonyl]piperidin-1-yl}pyridin-3-yl)piperidine-2,6-dione]",
500 to 1000,50 to 70,"CC(C)n1cnc2cc(-c3ccc4c(c3)N([C@H]3C[C@@H](N5CCCCC5)C3)C(=O)C43CCN(C(=O)C[C@H]4CCCN(C(=O)CC5CCN(c6ccc(C7CCC(=O)NC7=O)cn6)CC5)C4)CC3)nc(NC3CC3)c21 (mixture of isomers) [Example 297, (3RS)-3-[6-(4-{2-[(3R)-3-(2-{6-[4-(cyclopropylamino)-3-(propan-2-yl)-3H-imidazo[4,5-c]pyridin-6-yl]-2-oxo-1-[(1S,3S)-3-(piperidin-1-yl)cyclobutyl]-1,2-dihydrospiro[indole-3,4′-piperidin]-1′-yl}-2-oxoethyl)piperidin-1-yl]-2-oxoethyl}piperidin-1-yl)pyridin-3-yl]piperidine-2,6-dione]",
< 100,70 to 85,"CC(C)n1cnc2cc(-c3ccc4c(c3)N([C@H]3C[C@@H](N5CCCCC5)C3)C(=O)C43CCN(C(=O)[C@H]4CCN(C(=O)C5CCN(c6ccc(C7CCC(=O)NC7=O)cn6)CC5)C[C@H]4C)CC3)nc(NC3CC3)c21 (mixture of isomers) [Example 247, (3RS)-3-(6-{4-[(3S,4S)-4-({6-[4-(cyclopropylamino)-3-(propan-2-yl)-3H-imidazo[4,5-c]pyridin-6-yl]-2-oxo-1-[(1S,3S)-3-(piperidin-1-yl)cyclobutyl]-1,2-dihydrospiro[indole-3,4′-piperidin]-1′-yl}carbonyl)-3-methylpiperidine-1-carbonyl]piperidin-1-yl}pyridin-3-yl)piperidine-2,6-dione]",
< 100,70 to 85,"CC(C)n1cnc2cc(-c3ccc4c(c3)N([C@H]3C[C@@H](N5CCCCC5)C3)C(=O)C43CCN(C(=O)C4CCN(C(=O)C5CCN(c6ccc(C7CCC(=O)NC7=O)cc6)CC5)CC4)CC3)nc(Nc3ccccc3F)c21 (mixture of isomers) [Example 67, (3RS)-3-[4-(4-{4-[(6-{4-[(2-fluorophenyl)amino]-3-(propan-2-yl)-3H-imidazo[4,5-c]pyridin-6-yl}-2-oxo-1-[(1S,3S)-3-(piperidin-1-yl)cyclobutyl]-1,2-dihydrospiro[indole-3,4′-piperidin]-1′-yl)carbonyl]piperidine-1-carbonyl}piperidin-1-yl)phenyl]piperidine-2,6-dione]",
< 100,70 to 85,"CC(C)n1cnc2cc(-c3ccc4c(c3)N([C@H]3C[C@@H](N5CCCCC5)C3)C(=O)C43CCN(C(=O)[C@@H]4CCN(C(=O)[C@H]5CC[C@H](Oc6ccc(N7CCC(=O)NC7=O)cn6)CC5)C4)CC3)nc(Nc3ccncc3F)c21 [Example 22, 1-(6-{[(1R,4R)-4-[(3R)-3-[(6-{4-[(3-fluoropyridin-4-yl)amino]-3-(propan-2-yl)-3H-imidazo[4,5-c]pyridin-6-yl}-2-oxo-1-[(1S,3S)-3-(piperidin-1-yl)cyclobutyl]-1,2-dihydrospiro[indole-3,4′-piperidin]-1′-yl)carbonyl]pyrrolidine-1-carbonyl]cyclohexyl]oxy}pyridin-3-yl)-1,3-diazinane-2,4-dione]",
< 100,70 to 85,"CC(C)n1cnc2cc(-c3ccc4c(c3)N([C@H]3C[C@@H](N5CCCCC5)C3)C(=O)C43CCN(C(=O)C4CCN(C(=O)[C@H]5CC[C@H](Oc6ccc(C7CCC(=O)NC7=O)cc6)CC5)CC4)CC3)nc(Nc3ccccc3F)c21 (mixture of isomers) [Example 60, (3RS)-3-(4-{[(1R,4R)-4-{4-[(6-{4-[(2-fluorophenyl)amino]-3-(propan-2-yl)-3H-imidazo[4,5-c]pyridin-6-yl}-2-oxo-1-[(1S,3S)-3-(piperidin-1-yl)cyclobutyl]-1,2-dihydrospiro[indole-3,4′-piperidin]-1′-yl)carbonyl]piperidine-1-carbonyl}cyclohexyl]oxy}phenyl)piperidine-2,6-dione]",

SMILES,DC50 [nM],Dmax [%],Dmax Category
"CC(C)n1cnc2cc(-c3ccc4c(c3)N([C@H]3C[C@@H](N5CCCCC5)C3)C(=O)C43CCN(C(=O)C4(C)CCN(C(=O)C5CCN(c6ccc(C7CCC(=O)NC7=O)cn6)CC5)CC4)CC3)nc(NC3CC3)c21 (mixture of isomers) [Example 113, (3RS)-3-(6-{4-[4-({6-[4-(cyclopropylamino)-3-(propan-2-yl)-3H-imidazo[4,5-c]pyridin-6-yl]-2-oxo-1-[(1S,3S)-3-(piperidin-1-yl)cyclobutyl]-1,2-dihydrospiro[indole-3,4′-piperidin]-1′-yl}carbonyl)-4-methylpiperidine-1-carbonyl]piperidin-1-yl}pyridin-3-yl)piperidine-2,6-dione]",< 100,70 to 85,
"CC(C)n1cnc2cc(-c3ccc4c(c3)N([C@H]3C[C@@H](N5CCCCC5)C3)C(=O)C43CCN(C(=O)C4(C)CCN(C(=O)C5CCN(c6ccc([C@H]7CCC(=O)NC7=O)cn6)CC5)CC4)CC3)nc(NC3CC3)c21 (single isomer, unassigned) [Example 212]",< 100,,B (B: >70%-<85%)
"CC(C)n1cnc2cc(-c3ccc4c(c3)N(C3CC(N5CCCCC5)C3)C(=O)C43CCN(C(=O)C4CCN(C(=O)C5CCN(c6ccc7c(c6)C(=O)N(C6CCC(=O)NC6=O)C7=O)CC5)CC4)CC3)nc(Nc3ccncc3F)c21 (racemic) [Example 88, 2-[(3RS)-2,6-dioxopiperidin-3-yl]-5-(4-{4-[(6-{4-[(3-Fluoropyridin-4-yl)amino]-3-(propan-2-yl)-3H-imidazo[4,5-c]pyridin-6-yl}-2-oxo-1-[(1S,3S)-3-(piperidin-1-yl)cyclobutyl]-1,2-dihydrospiro[indole-3,4′-piperidin]-1′-yl)carbonyl]piperidine-1-carbonyl}piperidin-1-yl)-2,3-dihydro-1H-isoindole-1,3-dione]",< 100,,C (C: >50%-<70%)
